In patent publication US11254986B2, “Gene signature for immune therapies in cancer” (ALMAC DIAGNOSTICS LIMITED, priority 2015, dated 2022):

What was measured:
[1] = test system: CXCL10 and CCL5 chemokine production in MDA-MB-436 EV cells; assay: Chemokine expression after small molecule inhibitors of ATM, ATR and DNAPK; format: cell-based; conditions: DDRD positive cells (MDA-MB-436 EV), compared to the DMSO control, FIG. 16
Method: (§1) The product of Reverse Transcription was diluted 1:10 in Nuclease Free Water (NFW). Each 10 μl PCR reaction, consisted of 0.5 μl of 10 μM Forward primer, 0.5 μl of 10 μM Reverse primer, 5 μl of 2× LightCycler® 480 SYBR Green I Master mix (Roche), 1.5 μl NFW and 2.5 μl diluted Reverse Transcription product. These 10 μl reactions were pipetted into wells of a LightCycler® 480 multiwell 96 plate (Roche), the plate was then sealed using clear adhesive film (Roche). The plate was placed into the LightCycler® 480 (Roche) and run with the following protocol. (95° C. for 10 mins, 45 cycles of; 95° C. for 15 secs, 55° C. for 30 secs and 72° C. for 30 secs, finishing with a melt curve for confirmation of primer specificity. All qPCR data was analysed using the LightCycler® 480 software provided by Roche. For analysis, the Cp value from a technical duplicate was calculated and the relative amount of a gene was calculated Cp value to an in-run standard curve. Each mean value was then normalised to the mean concentration of the housekeeping gene PUM1 within the corresponding sample, by dividing the concentration of the target gene by the concentration of the house keeping gene. Relative expression refers to the gene expression levels that have been normalised to the housekeeping gene and made relative to the associated control samples. From these normalized values, the fold changes for each gene were calculated and the average of three individual fold changes were derived from three independent experimental triplicates. The unpaired, two-tailed students T-test available on GraphPad Prism 5.0 software was used to detect statistical significance.
(§2) For analysis of effects of ATM, ATR and DNAPK on cytokine expression, cells were seeded in six well plates at ˜60% confluency. Following incubation overnight, small molecule inhibitors of ATM (Ku60019, Selleck Chem) at a dose of 1 μm, ATR (ETP46464, Selleck Chem) at a dose of 5 μm and DNAPK (Nu7441, Selleck Chem) at a dose of 5 μm were added. At 24 hours, RNA and protein samples were obtained for analysis. For analysis of the effects of DNA damaging agents and paclitaxel on cytokine expression, cells were seeded in six well plates at ˜60% confluency. Following incubation overnight, IC50 doses of Cisplatin and Paclitaxel (obtained from fresh Pharmacy stock) and Hydroxyurea (Sigma Aldrich) were added for 24 hours to 48 hours. At the appropriate timepoint, RNA and protein samples were obtained for analysis.

[2] = test system: HCC1937 parental and HCC1937-BR cells; conditions: HCC1937 BRCA1 mutant cell-line relative to BRCA1 corrected cell-line (HCC1937-BR); FIG. 8C
Method: The cell-lines were routinely maintained in RPMI-1640 medium supplemented with 50 U penicillin/ml, 50 μg streptomycin/ml, 2 mM glutamine, 1 mM Sodium Pyruvate and 20% (v/v) fetal bovine serum (FBS). The HCC1937-EV and HCC937-BR cell-lines also required 0.2 ml/mg geneticin. Cell-lines were cultured at 37° C. with a humidified atmosphere of 5% CO2.
Twenty-four hours following seeding the cells were exposed to medium containing increasing doses of drug. Cell medium was replenished every 4-5 days. After 12-14 days the cells were fixed in methanol, stained with crystal violet and counted. The percentage survival of control for a given dose was calculated as the plating efficiencies for that dose divided by the plating efficiencies of vehicle-treated cells. Survival curves and half maximal inhibitory concentration (IC50) values were calculated using GraphPad Prism.

[3] = test system: CXCL10 and CCL5 expression; assay: qRT-PCR of chemokine expression after DNA damaging agents, paclitaxel or nocodazole; format: cell-based
Method: Reverse transcription was performed using the First Strand cDNA synthesis kit (Roche). 500 ng of RNA was reverse transcribed according to manufacturer's instructions. Exon-spanning qPCR primers were designed using Roche Universal Probe Library Assay Design Centre and were used at a concentration of 0.5 μM. The following primer sequences were used:
To preform absolute quantification from qPCR, we used a standard curve method. The efficiency of each primer set was derived from the standard curve using the following equation: E=10^(−1/slope)
as §1
as §2, with “Following incubation overnight, IC50 doses of Cisplatin and Paclitaxel (obtained from fresh Pharmacy stock) and Hydroxyurea (Sigma Aldrich) were added for 24 hours to 48 hours. At the appropriate timepoint, RNA and protein samples were obtained for analysis.” left out

[4] = test system: HeLa, HCC1937 EV and MDA-MB-436 EV cells; assay: Cell cycle analysis (propidium iodide, flow cytometry); format: cell-based; conditions: anti-mitotic agent treatment; FIG. 15
Method: as §2
Cells were trypsinised and fixed in 70% ethanol, incubated with RNase A and propidium iodide (P1) and analysed using a BD FACSCalibur™ (BD Biosciences, CA, USA). Data was analysed using Flow Jo software to perform cell cycle analysis.

[5] = test system: cytosolic DNA in HeLa cells; assay: PicoGreen fluorescent staining of double-stranded DNA, confocal microscopy; format: cell-based; conditions: IC50 doses, FIG. 19C
Excerpt: We probed cytosolic fractions of DDRD positive cells MDA-436-EV and +BRCA1, and HCC1937-EV and +BRCA1 cells for the presence of Histone H3, and found Histone H3 protein expression was increased in the repair deficient lines (EV) (FIG. 19A, top panel of blots). […] PicoGreen fluorescent staining was used to detect double-stranded DNA (ds-DNA). […] This increase in cytosolic DNA was however not observed in response to treatment with Paclitaxel (HeLa+Paclitaxel IC50) (FIG. 19C).

PDL1 = PDL1 expression in RKO cells after Interferon-γ, qPCR and western blot; format: cell-based; conditions: for PDL1 gene expression levels (fold change): RKO Par, RKO Fanc C and RKO Fanc G cells, FIG. 27B
Method: as §1, with “Relative expression refers to the gene expression levels that have been normalised to the housekeeping gene and made relative to the associated control samples.” left out, “The unpaired, two-tailed students T-test available on GraphPad Prism 5.0 software was used to detect statistical significance.” left out
Adherent cells formed whole cell lysates suspended in RIPA buffer containing phosphatase and protease inhibitors (Roche Inhibitor cocktails, Germany). […] Protein was quantified using the BCA Assay (Pierce, Rockford, Ill., USA) according to manufacturer's instructions using a plate reader. […] Results were then visualized and recorded using Luminata Crescendo Western HRP substrate (Millipore, UK) and an alpha imager.
The cytotoxic effects of lymphocytes on cancer cells was measured using LIVE/DEAD® Cell-Mediated Cytotoxicity Kit (Life technologies, Paisley, UK.) RKO parental and Fanc G cells were trypsinised, counted and stained with green-fluorescent membrane stain DiOC18 in PBS at a concentration of 2 μl of stain per ml. […]

[6] = test system: RKO Parental and RKO FANCG-/- cells; assay: Lymphocyte (PBMC) mediated cytotoxicity, LIVE/DEAD Cell-Mediated Cytotoxicity Kit; format: cell-based; conditions: pre-treatment of cancer cells, PBMC ratio 5:1, p-value<0.05, FIG. 27A
Method: The cytotoxic effects of lymphocytes on cancer cells was measured using LIVE/DEAD® Cell-Mediated Cytotoxicity Kit (Life technologies, Paisley, UK.) RKO parental and Fanc G cells were trypsinised, counted and stained with green-fluorescent membrane stain DiOC18 in PBS at a concentration of 2 μl of stain per ml. Cells were incubated with the stain for 20 minutes at 37° C. before being seeded into 12 well plates at a density of 1×10^5 cells per well and left to adhere overnight. The next day PMBCs were counted and added to RKO cell cultures at the ratios indicated. For 1:1 ratio 1×10^5 PBMCs were added, for 5:1 ratio 5×10^5 PBMCs were added. The co-cultures were incubated for 4 hours before cells were collected for analysis by flow cytometry. A BD FACSCalibur™ (BD Biosciences, CA, USA) was used for the analysis of samples and Flow Jo software was used for data analysis. Cells were treated with interferon-γ at a concentration of 20 ng/ml for 16 hours.

For `CC(C)(C#N)c1ccc(N2C(=O)OCc3cnc4ccc(-c5cnc6ccccc6c5)cc4c32)cc1` [ETP-46464], the “CXCL10 and CCL5 chemokine production / expression levels” value [1] was “No significant decreases”.

In the case of `O=C(c1cc(Cc2n[nH]c(=O)c3ccccc23)ccc1F)N1CCCNCC1` [KU0058948], the “sensitivity to PARP-1 inhibitor (clonogenic survival)” value [2] is reported as “more sensitive”.

In the case of `C[C@@H]1CN(CC(=O)Nc2ccc3c(c2)Cc2cccc(-c4cc(=O)cc(N5CCOCC5)o4)c2S3)C[C@H](C)O1` [Ku60019], the “CXCL10 and CCL5 chemokine production / expression levels” value [1] is reported as “No significant decreases”.

With `COC(=O)Nc1nc2ccc(C(=O)c3cccs3)cc2[nH]1` [Nocodazole] the “mRNA expression of CXCL10” value ([3]; anti-mitotic agent treatment, FIG. 15A) was “reduced mRNA expression of CXCL10” and the cell cycle arrest [4] was “arrest in the M phase”.

For `O=c1cc(N2CCOCC2)oc2c(-c3cccc4c3sc3ccccc34)cccc12` [Nu7440], the “CXCL10 and CCL5 chemokine production / expression levels” value [1] was “No significant decreases” and the “CXCL10 and CCL5 chemokine production / expression levels” value ([1]; listed as DNAPKi) was “significantly increased”.

With `CC(=O)O[C@H]1C(=O)[C@@]2(C)[C@H]([C@H](OC(=O)c3ccccc3)[C@]3(O)C[C@H](OC(=O)[C@H](O)[C@@H](NC(=O)c4ccccc4)c4ccccc4)C(C)=C1C3(C)C)[C@]1(OC(C)=O)CO[C@@H]1C[C@@H]2O` [Paclitaxel] the “cytosolic DNA (PicoGreen, confocal microscopy)” value [5] was “not observed” and the “CXCL10 and CCL5 relative expression” value ([3]; HeLa, HCC1937 EV and MDA-MB-436 EV cells, IC-50 doses, compared to DMSO control, FIG. 14) was “not significantly increased”.

“Interferon-γ: Interferon-γ, cells treated at 20 ng/ml for 16 hours” was tested, and the “PDL1 protein level (western blotting)” value (PDL1; RKO Par and RKO Fanc G cells, pre-treatment, FIG. 27C) was “enhanced PDL1 levels”, the “PDL1 gene expression levels (fold change)” value (PDL1) was “significantly increases PDL1 gene expression levels” and the “PDL1 gene expression levels (fold change)” value (PDL1; listed as IFN-γ) was “drives PDL-1 expression in DDRD+”.

B1: Interferon-γ: Interferon-γ, cells treated at 20 ng/ml for 16 hours (protein, UniProt P01579 24-161, looked up)
Interferon gamma: QDPYVKEAENLKKYFNAGHSDVADNGTLFLGILKNWKEESDRKIMQSQIVSFYFKLFKNFKDDQSIQKSVETIKEDMNVKFFNSNKKKRDDFEKLTNYSVTDLNVQRKAIHELIQVMAELSPAAKTGKRKRSQMLFRG
In the case of B1, the “lymphocyte mediated cytotoxicity, differential between RKO FANCG-/- and RKO Parental cells” value [6] is reported as “extends the differential cytotoxicity” and the “lymphocyte mediated cytotoxicity, differential between RKO FANCG-/- and RKO Parental cells” value ([6]; listed as IFN-γ) is reported as “protects against PBMC mediated cytotoxicity”.
